Results published in ChEMBL document CHEMBL4257559, “Protective effects of astragaloside IV against hypoxic pulmonary hypertension” (Medchemcomm, 2018).
The source made the active and inactive calls.

Legend:
[1] = tested on: Rattus norvegicus; experiment: Protective effect against chronic hypoxia-induced pulmonary hypertension in Sprague-Dawley rat assessed as decrease in mean pulmonary arterial pressure at 10 mg/kg, ip administered every other day at 10 mins prior to induction of hypoxia and measured after 2 weeks; type: functional, organism-based
[2] = tested on: Rattus norvegicus; experiment: Protective effect against chronic hypoxia-induced pulmonary hypertension in Sprague-Dawley rat assessed as decrease in right ventricular pressure at 10 mg/kg, ip administered every other day at 10 mins prior to induction of hypoxia and measured after 2 weeks; type: functional, organism-based
[3] = tested on: Rattus norvegicus; experiment: (§1) Protective effect against chronic hypoxia-induced pulmonary hypertension in Sprague-Dawley rat assessed as decrease in index of right ventricular hypertrophy by measuring ratio of right ventricular/(left ventricular + septum) weight at 10 mg/kg, ip administered every other day at 10 mins prior to induction of hypoxia and measured after 2 weeks; type: functional, organism-based
[4] = tested on: Rattus norvegicus; experiment: Protective effect against chronic hypoxia-induced pulmonary hypertension in Sprague-Dawley rat assessed as decrease in mean pulmonary arterial pressure at 50 mg/kg, ip administered every other day at 10 mins prior to induction of hypoxia and measured after 2 weeks; type: functional, organism-based
[5] = tested on: Rattus norvegicus; experiment: Protective effect against chronic hypoxia-induced pulmonary hypertension in Sprague-Dawley rat assessed as decrease in right ventricular pressure at 50 mg/kg, ip administered every other day at 10 mins prior to induction of hypoxia and measured after 2 weeks; type: functional, organism-based
[6] = tested on: Rattus norvegicus; experiment: as §1, with “weight at 50 mg/kg, ip” for “weight at 10 mg/kg, ip”; type: functional, organism-based
[7] = tested on: Pulmonary artery; experiment: Protective effect against chronic hypoxia-induced pulmonary hypertension in Sprague-Dawley rat pulmonary arterial ring assessed as increase in relaxation of pulmonary artery ring at 10 uM treated after phenylephrine-induced vasoconstriction measured at 1 min; type: functional, tissue-based
[8] = tested on: Pulmonary artery; experiment: Protective effect against chronic hypoxia-induced pulmonary hypertension in Sprague-Dawley rat pulmonary arterial ring assessed as increase in relaxation of pulmonary artery ring at 10 uM treated after phenylephrine-induced vasoconstriction measured at 10 mins relative to control; type: functional; design: scale not given: the % may be the effect or the level left
[9] = tested on: Pulmonary artery; experiment: Protective effect against chronic hypoxia-induced pulmonary hypertension in Sprague-Dawley rat pulmonary arterial ring assessed as increase in relaxation of pulmonary artery ring at 50 uM treated after phenylephrine-induced vasoconstriction measured at 1 min; type: functional, tissue-based
[10] = tested on: Pulmonary artery; experiment: Protective effect against chronic hypoxia-induced pulmonary hypertension in Sprague-Dawley rat pulmonary arterial ring assessed as increase in relaxation of pulmonary artery ring at 50 uM treated after phenylephrine-induced vasoconstriction measured at 10 mins relative to control; type: functional; design: scale not given: the % may be the effect or the level left
[11] = tested on: Rattus norvegicus; experiment: Protective effect against chronic hypoxia-induced pulmonary hypertension in Sprague-Dawley rat assessed as decrease in serum endothelin levels at 10 mg/kg, ip administered every other day at 10 mins prior to induction of hypoxia and measured after 2 weeks by ELISA; type: functional, organism-based
[12] = tested on: Rattus norvegicus; experiment: Protective effect against chronic hypoxia-induced pulmonary hypertension in Sprague-Dawley rat assessed as decrease in serum angiotensin-2 levels at 10 mg/kg, ip administered every other day at 10 mins prior to induction of hypoxia and measured after 2 weeks by ELISA; type: functional, organism-based
[13] = tested on: Rattus norvegicus; experiment: Protective effect against chronic hypoxia-induced pulmonary hypertension in Sprague-Dawley rat assessed as decrease in serum endothelin levels at 50 mg/kg, ip administered every other day at 10 mins prior to induction of hypoxia and measured after 2 weeks by ELISA; type: functional, organism-based
[14] = tested on: Rattus norvegicus; experiment: Protective effect against chronic hypoxia-induced pulmonary hypertension in Sprague-Dawley rat assessed as decrease in serum angiotensin-2 levels at 50 mg/kg, ip administered every other day at 10 mins prior to induction of hypoxia and measured after 2 weeks by ELISA; type: functional, organism-based
[15] = tested on: Rattus norvegicus; experiment: Protective effect against chronic hypoxia-induced pulmonary hypertension in ip dosed Sprague-Dawley rat assessed as decrease in serum TNF-alpha levels administered every other day at 10 mins prior to induction of hypoxia and measured after 2 weeks by ELISA; type: functional, organism-based
[16] = tested on: Rattus norvegicus; experiment: Protective effect against chronic hypoxia-induced pulmonary hypertension in ip dosed Sprague-Dawley rat assessed as decrease in serum IL-6 levels administered every other day at 10 mins prior to induction of hypoxia and measured after 2 weeks by ELISA; type: functional, organism-based
[17] = Cmax in chronic hypoxia-induced pulmonary hypertension model of Sprague-Dawley rat at 50 mg/kg, ip after 30 to 600 mins by HPLC analysis; type: ADME, organism-based; design: dose 50 mg/kg, route intraperitoneal; conditions: in vivo
[18] = Tmax in chronic hypoxia-induced pulmonary hypertension model of Sprague-Dawley rat at 50 mg/kg, ip after 30 to 600 mins by HPLC analysis; type: ADME, organism-based; conditions: in vivo
[19] = Cmax in chronic hypoxia-induced pulmonary hypertension model of Sprague-Dawley rat at 10 mg/kg, ip after 30 to 600 mins by HPLC analysis; type: ADME, organism-based; design: dose 10 mg/kg, route intraperitoneal; conditions: in vivo
[20] = Tmax in chronic hypoxia-induced pulmonary hypertension model of Sprague-Dawley rat at 10 mg/kg, ip after 30 to 600 mins by HPLC analysis; type: ADME, organism-based; conditions: in vivo
[21] = species on record: Rattus norvegicus; experiment: Inhibition of hypoxia-induced proliferation of Sprague-Dawley rat PASMC at 50 uM preincubated for 10 mins followed by hypoxia induction and measured after 24 hrs by CCK8 assay; type: functional
[22] = species on record: Rattus norvegicus; experiment: Inhibition of hypoxia-induced proliferation of Sprague-Dawley rat PASMC at 10 uM preincubated for 10 mins followed by hypoxia induction and measured after 24 hrs by CCK8 assay; type: functional

CC(C)(O)[C@@H]1CC[C@](C)([C@H]2[C@@H](O)C[C@@]3(C)[C@@H]4C[C@H](O[C@@H]5O[C@H](CO)[C@@H](O)[C@H](O)[C@H]5O)[C@H]5C(C)(C)[C@@H](O[C@@H]6OC[C@@H](O)[C@H](O)[C@H]6O)CC[C@@]56C[C@@]46CC[C@]23C)O1
21.194%: Activity [10]
25200 ng/mL: Cmax [17]
7270 ng/mL: Cmax [19]
9.42%: Activity [8]
active: Activity [7] | Activity [9] | Activity [13] | Activity [14] | Activity [15] Dose-dependent effect | Activity [16] Dose-dependent effect | inhibition [21]
inactive: Activity [1] | Activity [2] | Activity [3] | Activity [4] | Activity [5] | Activity [6] | Activity [11] | Activity [12] | inhibition [22]
1 h: Tmax [18] | Tmax [20]
